≈ marks a conversion by molar mass, not a printed value.
How the values were obtained:
Format in all cases: functional
Staphylococcus aureus [1] = assay: Minimal inhibitory concentration against methicillin susceptible Staphylococcus aureus giorgio
Escherichia coli = assay: Minimal inhibitory concentration against Escherichia coli 3190Y
Staphylococcus aureus [2] = assay: Minimal inhibitory concentration against methicillin resistant Staphylococcus aureus 77
Streptococcus pneumoniae = assay: Minimal inhibitory concentration against Streptococcus pneumonia PN010, penicillin resistant
Klebsiella pneumoniae = assay: Minimal inhibitory concentration against Klebsiella pneumonia 2011E
[3] = Minimal inhibitory concentration against Moraxella catarrhalis 25240
[4] = Minimal inhibitory concentration against Haemophilus influenza HIN003, beta lactamase producing resistant strain; details: Haemophilus influenzae
[5] = Minimal inhibitory concentration against Enterococcus faecalis 29212
[6] = Minimal inhibitory concentration against Proteus vulgaris 6059

SMILES	MIC (Staphylococcus aureus [1]) [µg/mL]	MIC (Escherichia coli) [µg/mL]	MIC (Staphylococcus aureus [2]) [µg/mL]	MIC (Streptococcus pneumoniae) [µg/mL]	MIC (Klebsiella pneumoniae) [µg/mL]	MIC [3] [µg/mL]	MIC [4] [µg/mL]	MIC [5] [µg/mL]	MIC [6] [µg/mL]
Nc1cc(SC2=C(C(=O)O)N3C(=O)C(NC(=O)/C(=N\O)c4nc(N)sc4Cl)C3SC2)nc(N)n1 (configuration not stated)	0.25 (≈ 0.46 µM)	0.25 (≈ 0.46 µM)	2 (≈ 3.68 µM)	1 (≈ 1.84 µM)	2 (≈ 3.68 µM)	< 0.008	0.5 (≈ 0.919 µM)	2 (≈ 3.68 µM)	0.5 (≈ 0.919 µM)
CCO/N=C(\C(=O)NC1C(=O)N2C(C(=O)O)=C(Sc3cc(N)nc(N)n3)CSC12)c1csc(N)n1 (configuration not stated)	0.5 (≈ 0.93 µM)	0.13 (≈ 0.242 µM)	4 (≈ 7.44 µM)	0.5 (≈ 0.93 µM)	2 (≈ 3.72 µM)	< 0.008	0.063 (≈ 0.117 µM)	64 (≈ 119 µM)	0.063 (≈ 0.117 µM)
CO/N=C(\C(=O)NC1C(=O)N2C(C(=O)O)=C(SCSc3cc(N)nc(N)n3)CSC12)c1csc(N)n1 (configuration not stated)	0.25 (≈ 0.439 µM)	0.063 (≈ 0.111 µM)	4 (≈ 7.02 µM)	0.13 (≈ 0.228 µM)	0.5 (≈ 0.878 µM)	0.5 (≈ 0.878 µM)	1 (≈ 1.76 µM)	64 (≈ 112 µM)	0.016 (≈ 0.0281 µM)
CO/N=C(\C(=O)NC1C(=O)N2C(C(=O)O)=C(Sc3cc(N)nc(N)n3)CSC12)c1csc(N)n1 (configuration not stated)	0.5 (≈ 0.955 µM)	0.031 (≈ 0.0592 µM)	4 (≈ 7.64 µM)	0.5 (≈ 0.955 µM)	0.5 (≈ 0.955 µM)	< 0.008	0.016 (≈ 0.0306 µM)	> 64	0.016 (≈ 0.0306 µM)
Nc1cc(N)nc(SCSC2=C(C(=O)O)N3C(=O)C(NC(=O)/C(=N\O)c4nc(N)sc4Cl)C3SC2)n1 (configuration not stated)	0.5 (≈ 0.847 µM)	1 (≈ 1.69 µM)	4 (≈ 6.78 µM)	1 (≈ 1.69 µM)	8 (≈ 13.6 µM)	0.13 (≈ 0.22 µM)	0.016 (≈ 0.0271 µM)	4 (≈ 6.78 µM)	1 (≈ 1.69 µM)
Nc1ccnc(SCSC2=C(C(=O)O)N3C(=O)C(NC(=O)/C(=N\O)c4nc(N)sc4Cl)C3SC2)n1 (configuration not stated)	0.25 (≈ 0.435 µM)	1 (≈ 1.74 µM)	2 (≈ 3.48 µM)	1 (≈ 1.74 µM)	8 (≈ 13.9 µM)	0.5 (≈ 0.869 µM)	0.25 (≈ 0.435 µM)	2 (≈ 3.48 µM)	0.5 (≈ 0.869 µM)
C#CCO/N=C(\C(=O)NC1C(=O)N2C(C(=O)O)=C(Sc3cc(N)nc(N)n3)CSC12)c1csc(N)n1 (configuration not stated)	0.5 (≈ 0.913 µM)	0.13 (≈ 0.237 µM)	4 (≈ 7.3 µM)	0.25 (≈ 0.457 µM)	2 (≈ 3.65 µM)	0.016 (≈ 0.0292 µM)	0.031 (≈ 0.0566 µM)	32 (≈ 58.4 µM)	0.031 (≈ 0.0566 µM)
Nc1nc(O)cc(SC2=C(C(=O)O)N3C(=O)C(NC(=O)/C(=N\O)c4csc(N)n4)C3SC2)n1 (configuration not stated)	0.5 (≈ 0.979 µM)	0.5 (≈ 0.979 µM)	4 (≈ 7.83 µM)	1 (≈ 1.96 µM)	8 (≈ 15.7 µM)	< 0.008	1 (≈ 1.96 µM)	4 (≈ 7.83 µM)	0.5 (≈ 0.979 µM)
Nc1nc(/C(=N/O)C(=O)NC2C(=O)N3C(C(=O)O)=C(SCSc4nc(O)nc(N)c4N)CSC23)c(Cl)s1 (configuration not stated)	0.5 (≈ 0.825 µM)	0.25 (≈ 0.412 µM)	4 (≈ 6.6 µM)	2 (≈ 3.3 µM)	1 (≈ 1.65 µM)	0.13 (≈ 0.214 µM)	0.016 (≈ 0.0264 µM)	4 (≈ 6.6 µM)	0.25 (≈ 0.412 µM)
Nc1cc(SCSC2=C(C(=O)O)N3C(=O)C(NC(=O)/C(=N\O)c4nc(N)sc4Cl)C3SC2)nc(N)n1 (configuration not stated)	0.13 (≈ 0.22 µM)	0.25 (≈ 0.424 µM)	1 (≈ 1.69 µM)	0.25 (≈ 0.424 µM)	1 (≈ 1.69 µM)	0.13 (≈ 0.22 µM)	0.5 (≈ 0.847 µM)	1 (≈ 1.69 µM)	0.25 (≈ 0.424 µM)
Nc1cc(SCSC2=C(C(=O)O)N3C(=O)C(NC(=O)/C(=N\O)c4csc(N)n4)C3SC2)nc(N)n1 (configuration not stated)	0.13 (≈ 0.234 µM)	0.031 (≈ 0.0558 µM)	1 (≈ 1.8 µM)	0.5 (≈ 0.9 µM)	0.5 (≈ 0.9 µM)	2 (≈ 3.6 µM)	0.5 (≈ 0.9 µM)	1 (≈ 1.8 µM)	0.031 (≈ 0.0558 µM)
Nc1nc(O)cc(SCSC2=C(C(=O)O)N3C(=O)C(NC(=O)/C(=N\O)c4nc(N)sc4Cl)C3SC2)n1 (configuration not stated)	0.13 (≈ 0.22 µM)	0.25 (≈ 0.423 µM)	1 (≈ 1.69 µM)	0.5 (≈ 0.846 µM)	2 (≈ 3.38 µM)	0.063 (≈ 0.107 µM)	0.031 (≈ 0.0524 µM)	1 (≈ 1.69 µM)	0.13 (≈ 0.22 µM)
CCO/N=C(\C(=O)NC1C(=O)N2C(C(=O)O)=C(Sc3cc(N)nc(N)n3)CSC12)c1nsc(N)n1 (configuration not stated)	1 (≈ 1.86 µM)	0.063 (≈ 0.117 µM)	4 (≈ 7.43 µM)	0.25 (≈ 0.464 µM)	2 (≈ 3.71 µM)	< 0.008	0.13 (≈ 0.241 µM)	64 (≈ 119 µM)	0.063 (≈ 0.117 µM)
Nc1nc(O)cc(SC2=C(C(=O)O)N3C(=O)C(NC(=O)/C(=N\O)c4nc(N)sc4Cl)C3SC2)n1 (configuration not stated)	0.25 (≈ 0.459 µM)	0.063 (≈ 0.116 µM)	2 (≈ 3.67 µM)	0.5 (≈ 0.917 µM)	1 (≈ 1.83 µM)	–	0.016 (≈ 0.0294 µM)	8 (≈ 14.7 µM)	0.063 (≈ 0.116 µM)
Nc1cc(SC2=C(C(=O)O)N3C(=O)C(NC(=O)/C(=N\O)c4csc(N)n4)C3SC2)nc(N)n1 (configuration not stated)	0.25 (≈ 0.491 µM)	0.031 (≈ 0.0608 µM)	2 (≈ 3.92 µM)	0.5 (≈ 0.981 µM)	1 (≈ 1.96 µM)	< 0.008	0.13 (≈ 0.255 µM)	8 (≈ 15.7 µM)	0.031 (≈ 0.0608 µM)
Nc1cc(N)nc(SCSC2=C(C(=O)O)N3C(=O)C(NC(=O)/C(=N\O)c4csc(N)n4)C3SC2)n1 (configuration not stated)	0.13 (≈ 0.234 µM)	0.063 (≈ 0.113 µM)	1 (≈ 1.8 µM)	1 (≈ 1.8 µM)	0.5 (≈ 0.9 µM)	1 (≈ 1.8 µM)	1 (≈ 1.8 µM)	4 (≈ 7.2 µM)	0.031 (≈ 0.0558 µM)
C=CC1=C(C(=O)O)N2C(=O)[C@@H](NC(=O)/C(=N\O)c3csc(N)n3)[C@H]2SC1 [CEFDINIR]	0.063 (≈ 0.159 µM)	0.031 (≈ 0.0784 µM)	4 (≈ 10.1 µM)	4 (≈ 10.1 µM)	0.13 (≈ 0.329 µM)	0.5 (≈ 1.26 µM)	0.5 (≈ 1.26 µM)	8 (≈ 20.2 µM)	0.031 (≈ 0.0784 µM)
